Publication PMC7123434, “Development of High-Throughput Fluorescent-Based Screens to Accelerate Discovery of P2X Inhibitors from Animal Venoms” (Journal of Natural Products, 2019)

Legend:
Format in all cases: cell-based
hP2X4 [1] = molecular target: T1, hP2X4 (Homo sapiens, UniProt Q99571); assay: Fura-2 AM [Ca2+]i assay on 1321N1-hP2X4 cells; settings: used for fitting; Figure S1 A,B: 1321N1-hP2X4 and HEK293-hP2X4; read-out: ATP EC50
T1 construct: expressed in transfected cells
T1 sequence (Q99571 1-388): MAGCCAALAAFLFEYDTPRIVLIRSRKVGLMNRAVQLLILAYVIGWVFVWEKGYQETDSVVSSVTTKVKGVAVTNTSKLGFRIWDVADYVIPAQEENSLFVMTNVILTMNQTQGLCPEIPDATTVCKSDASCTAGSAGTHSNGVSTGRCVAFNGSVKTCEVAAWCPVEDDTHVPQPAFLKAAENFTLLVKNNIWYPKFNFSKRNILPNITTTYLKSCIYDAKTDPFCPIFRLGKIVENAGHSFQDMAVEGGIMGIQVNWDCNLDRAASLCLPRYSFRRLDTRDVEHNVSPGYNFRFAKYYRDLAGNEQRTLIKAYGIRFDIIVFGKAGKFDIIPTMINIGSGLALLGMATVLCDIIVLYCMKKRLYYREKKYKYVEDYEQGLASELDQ
Description: One day prior to measurements, 1321N1-hP2X4 cells were plated onto poly-D-lysine-coated 96-well plates at 2 × 10^4 cells/well. After 24 h, the cells were loaded for 1 h at 37 °C with 2 μM Fura-2 AM in Hank’s Balanced Salt Solution (HBSS, Gibco). The Fura-2 loading buffer dye was removed; then the cells were incubated in 80 μL of Etotal buffer, containing (in mM) 145 NaCl, 5 KCl, 1 MgCl2, 2 CaCl2, 13 D-glucose, 10 HEPES; pH 7.33. […] The injection volume was 10 μL with 150 μL pipette height and rate of 4 (∼62 μL/s). The run time was 300 s with 3.5 s intervals and 3 reads/well. The change in [Ca^2+]i concentration was calculated as the ratio of Fura-2 intensities at 520 emission from excitation at 340 and 380 nm (F ratio).

hP2X7 = molecular target: T2, hP2X7 (Homo sapiens, UniProt Q99572); assay: YOPRO-1 dye uptake assay on HEK293-hP2X7 cells; settings: used for fitting; Figure S1C: HEK293-hP2X7; read-out: ATP EC50
T2 construct: expressed in transfected cells
T2 sequence (Q99572 1-595): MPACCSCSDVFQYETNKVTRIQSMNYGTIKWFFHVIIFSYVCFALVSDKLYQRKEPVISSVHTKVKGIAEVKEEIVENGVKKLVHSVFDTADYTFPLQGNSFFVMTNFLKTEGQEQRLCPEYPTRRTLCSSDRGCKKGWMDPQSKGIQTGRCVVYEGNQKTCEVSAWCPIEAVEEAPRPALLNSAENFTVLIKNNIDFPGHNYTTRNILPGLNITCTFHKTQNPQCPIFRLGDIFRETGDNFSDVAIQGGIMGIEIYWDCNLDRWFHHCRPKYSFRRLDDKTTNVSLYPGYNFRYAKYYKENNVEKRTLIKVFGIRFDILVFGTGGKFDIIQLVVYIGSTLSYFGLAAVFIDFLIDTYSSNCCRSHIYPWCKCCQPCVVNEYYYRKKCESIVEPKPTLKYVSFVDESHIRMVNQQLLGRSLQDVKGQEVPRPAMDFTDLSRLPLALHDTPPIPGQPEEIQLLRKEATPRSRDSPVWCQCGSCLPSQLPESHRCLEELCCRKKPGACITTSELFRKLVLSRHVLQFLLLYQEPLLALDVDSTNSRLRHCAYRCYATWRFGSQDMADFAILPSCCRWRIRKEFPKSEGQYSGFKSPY
Description: (§1) This method was adapted and further optimized from Patrice et al.[50] One day prior to measurements, HEK293-hP2X4 and HEK293-hP2X7 cells were plated on poly-D-lysine-coated 96-well plates at 2 × 10^4 cells/well. After 24 h, the culture media was aspirated, and 80 μL of YOPRO-1 assay buffer (145 mM NaCl, 5 mM KCl, 0.1 mM CaCl2, 13 mM D-glucose, 10 mM HEPES; pH 7.35) with 2 μM YOPRO-1 was applied. […] The injection volume was 10 μL with a 150 μL pipet height and rate of 4 (∼62 μL/s). The run time was 300 s with a 3.9 s interval, 6 reads/well, and 77 reads in total. Measurement parameters were as follows: bottom reading, excitation wavelength (490 nm), emission wavelength (520 nm).

hP2X4 [2] = molecular target: T1, hP2X4; assay: YOPRO-1 dye uptake assay on HEK293-hP2X4 cells
Description: as §1

Nc1ncnc2c1ncn2[C@@H]1O[C@H](COP(=O)(O)OP(=O)(O)OP(=O)(O)O)[C@@H](O)[C@H]1O [ATP] showed an EC50 (hP2X4 [1]) of 1.6 µM and an EC50 (hP2X7) of 300 µM.
For CC(C)c1cc(Br)c(NC(=O)Nc2cccnc2)c(Br)c1 [BX430], the inhibition at 10 µM (hP2X4 [2]; 10 μM, hP2X4, cell line not stated) was 75% and the “Normalised Mean” value (hP2X4 [2]; AUC signal normalised to positive control (10 µM ATP) = 1.0, HEK293-hP2X4) was 1.05.
